Data: patent EP2775836B1, “METHODS FOR TREATING GOUT FLARES” (CymaBay Therapeutics, Inc., priority 2011, dated 2013)

Tests used:
serum uric acid [1] = experiment: Phase 1 multiple-dose study MBX102-2DM01011b: serum uric acid after daily oral dosing for 10 days; format: in vivo, human; settings: for Mean % change: Day 9 vs baseline; for Mean change at Day 9: change from baseline; for Mean uric acid at Day 9: healthy adult subjects
Protocol: Methods used in relation to FIG. 3 showing reduction in serum uric acid in subjects over time following once daily dosing with arhalofenate were as follows.
A single centre, Phase 1, placebo- and positive-controlled, double-blind, randomized, dose escalation study (MAD study, MBX102-2DM01011b) was conducted to evaluate the multiple-dose pharmacokinetics (PK) of (-)-halofenate administered as a daily dose orally for 10 days, at the protocol-specified doses in healthy adult subjects. A total of 119 subjects completed study treatment according to protocol: 6 subjects received MBX-102 100 mg/day for 10 days; 6 subjects received MBX-102 200 mg/day for 10 days; 9 subjects received MBX-102 400 mg/day for 10 days; 20 subjects received MBX-102 600 mg/day for 10 days; 10 subjects received MBX-102 600 mg Enteric Coated (EC) /day for 10 days; 9 subjects received MBX-102 800 mg EC/day for 10 days; 10 subjects received MBX-102 1000 mg EC/day for 10 days; 24 subjects received placebo treatment daily for 10 days; and 25 subjects received naproxen 500 mg b.i.d. monotherapy for 7 days. In this study, serum uric acid was measured at screening and on Days 1, 3, 5, 7, 9, 14, and 21.

[2] = test system: high sensitivity C-Reactive Protein (hs-CRP); experiment: Phase 1 multiple-dose study M102-0507: change in hs-CRP in type 2 diabetic patients on Glynase; format: in vivo, human
Protocol: Data presented in FIGS. 6 and 7 were generated based on a single-center, Phase 1, randomized, single-blind, multiple-dose study (M102-0507) evaluating the effect of (-)-halofenate given to type 2 diabetic patients who were receiving a stable dose of Glynase® (micronized glyburide). Eligible patients were initially dosed for 3 days with Glynase® 3 mg/day, and if safety and tolerability were acceptable to the Investigator, the dose was increased to Glynase® 6 mg/day for 4 days, followed by 14 days of Glynase® 6 mg and either (-)-halofenate 400 mg or 600 mg administration until Day 21, the patients were discharged on Day 22.
In this study, change in high sensitivity C-Reactive Protein (hs-CRP) from baseline was one of the endpoints. […] At Day 22, the mean percentage changes in C-reactive protein compared to Day 1 were -21.1% and -32.9% in Group 1 ((-)-halofenate 400 mg) and Group 2 ((-)-halofenate 600 mg), respectively.

3T3-L1 adipocytes = experiment: Example 1: suppression of uric-acid induced inflammation in vitro; format: cell-based, murine; settings: 50-150 µM, uric acid 5 or 15 mg/dL, 3 or 7 days
Protocol: Differentiated murine 3T3-L1 adipocytes are cultured in vitro in 24 well plates. To the culture medium (-)-halofenic acid is added at a final concentration of 50- 150 µM prior to the addition of uric acid at 5 mg/dL or 15 mg/dL and the culture continued for 3 or 7 days. A parallel culture of cells is conducted in the presence of a vehicle such as dimethylsulfoxide (DMSO). At the end of the culture period media is removed, cells are isolated and messenger RNA prepared. The levels of secreted cytokines representing a panel of pro-inflammatory cytokines including but not restricted to monocyte chemoatractant protein-1 (MCP-1), tumor necrosis factor α (TNF-α), interlekin-1β, (IL-1β), interleukin-6 (IL-6) and interleukin-12 (Il-12) are determined in the media isolated from the cells using commercially available cytokine assay kits. The levels of gene expression for the mRNAs for a panel of pro-inflammatory cytokines including but not restricted to monocyte chemoatractant protein-1 (MCP-1), tumor necrosis factor α (TNF-α), interlekin-1β, (IL-1β), interleukin-6 (IL-6) and interleukin-12 (Il-12) are determined using real-time PCR. […] A similar study is also conducted in primary mouse macrophages and human umbilical vein endothelial cells.

serum uric acid [3] = settings: monotherapy at 40, 80, 120, 160 and 240 mg/day, gout patients; cited from earlier work
[4] = Plasma concentration of (-)-halofenic acid after daily oral 400 mg arhalofenate (LC-MS/MS); format: in vivo, human
Protocol: Methods used in relation to FIGS. 1-2 showing the pharmacokinetic profile of (-)-halofenic acid were as follows:
Plasma proteins in human plasma samples containing of (-)-halofenic acid, an internal standard (I.S.) and heparin as the anticoagulant were precipitated with acetonitrile. The samples were vortex mixed, centrifuged and an aliquot was analyzed by reversed phase high performance liquid chromatography using a Phenomenex Polar RP column maintained at 45 °C. The mobile phase was nebulized using heated nitrogen in a Z-spray source/interface and the ionized compounds were detected using a tandem quadrupole mass spectrometer.
The plasma concentrations were rounded to the nearest one-tenth µg/mL before the calculations. Plasma samples with concentrations below the quantifiable limit of 1.0 µg/mL (BQL) were assigned values of zero.

IL-1β = IL-1β mRNA and secretion in LPS stimulated primary mouse macrophages; format: cell-based; settings: 75 and 150 µM, 1 hour before 100 ng/mL LPS for 8 hours
Protocol: Methods used in relation to FIGS. 4-5 showing effects of (-)-halofenic acid IL-1β were as follows:
Eight week-old male C57BL/6J mice were injected intra-peritoneally with 2.5 mL of 3% thioglycollate. Three days after injection, mice were sacrificed by cervical dislocation. Macrophages were harvested immediately by injecting 5 mL of PBS into the intra-peritoneal cavity, surgically exposing the intra-peritoneal cavity and aspirating the intra-peritoneal fluid with a 1 mL syringe. Macrophages from multiple animals were pooled and centrifuged at 1500 rpm, 10 min at 4 °C. Contaminating red blood cells were removed from the pellet by lysis with 10 mL RBC lysis buffer for 5min at room temperature, followed by centrifugation at 1500 rpm, 10 min at 4 °C. The cells were washed once and re-suspended in RPMI 1640, 10% FBS/0.1% Pen/Strep and plated into multi-well plates (1,000,000 cells/well for 24 well plates and 100,000 cells/well for 96 well plates). The cells were cultured for 30 hours, re-fed with fresh RPMI 1640, 0.5% FBS and incubated overnight. […]
The cells were harvested in Qiazol lysis solution for gene expression analysis. […] The Ct values for IL-1β were determined using ABI Sequence Detection Software. […] The fold change is then calculated using the formula 2^-[delta][delta]Ct. […]

[5] = 600 mg Enteric Coated (EC)/day for 10 days

CC(=O)NCCOC(=O)[C@H](Oc1cccc(C(F)(F)F)c1)c1ccc(Cl)cc1 [(-)-halofenate, (-)-(R)-(4-chloro-phenyl)-(3-trifluoromethyl-phenoxy)-acetic acid 2-acetylamino-ethyl ester]
Mean % change (serum uric acid [1]; 400 mg/day orally for 10 days): -21%
Mean change at Day 9 (serum uric acid [1]; 400 mg/day orally for 10 days): -1.02 mg/dL
Mean uric acid at Day 9 (serum uric acid [1]; 400 mg/day orally for 10 days): 3.89 mg/dL
Mean % change (serum uric acid [1]; [5]): -30%
Mean change at Day 9 (serum uric acid [1]; [5]): -1.69 mg/dL
Mean uric acid at Day 9 (serum uric acid [1]; [5]): 3.92 mg/dL
Mean % change (serum uric acid [1]; 600 mg/day orally for 10 days): -33%
Mean change at Day 9 (serum uric acid [1]; 600 mg/day orally for 10 days): -1.65 mg/dL
Mean uric acid at Day 9 (serum uric acid [1]; 600 mg/day orally for 10 days): 3.40 mg/dL
Mean % change (serum uric acid [1]; 800 mg EC/day for 10 days): -32%
Mean change at Day 9 (serum uric acid [1]; 800 mg EC/day for 10 days): -1.77 mg/dL
Mean uric acid at Day 9 (serum uric acid [1]; 800 mg EC/day for 10 days): 3.83 mg/dL
Mean % change (serum uric acid [1]; 1000 mg EC/day for 10 days): -45%
Mean change at Day 9 (serum uric acid [1]; 1000 mg EC/day for 10 days): -2.44 mg/dL
Mean uric acid at Day 9 (serum uric acid [1]; 1000 mg EC/day for 10 days): 3.04 mg/dL
reduction in serum uric acid (serum uric acid [1]; all dose levels tested, dose dependent, over a period of time): gradual reduction
Day 22 hs-CRP ([2]; (-)-halofenate 600 mg/day Day 8-21 with Glynase 6 mg/day, type 2 diabetic patients): 4.4
mean percentage change in C-reactive protein at Day 22 compared to Day 1 ([2]; Group 1: 400 mg/day Day 8-21 with Glynase 6 mg/day): -21.1%
Mean % change from Day 8 (Day 22 hs-CRP) ([2]; Group 2: 600 mg/day Day 8-21 with Glynase 6 mg/day, Day 8 = Glyburide only phase): -33.3%
expression and secretion of panel of pro-inflammatory cytokines (3T3-L1 adipocytes): reduced level of expression and consequently secretion
uptake of uric acid into 3T3-L1 adipocytes (3T3-L1 adipocytes): prevents the uptake of uric acid

O=c1[nH]cnc2c(CN3C[C@H](CO)[C@@H](O)C3)c[nH]c12 [BCX4208, 7-(((3R,4R)-3-hydroxy-4-(hydroxymethyl)pyrrolidin-1-yl)methyl)-3H-pyrrolo[3,2-d]pyrimidin-4(5H)-one]
serum uric acid (serum uric acid [3]): rapidly and significantly reduced

O=C(O)C(Oc1cccc(C(F)(F)F)c1)c1ccc(Cl)cc1 (single isomer, unassigned; (-)) [(-)-halofenic acid, (-)-4-chlorophenyl-(3-trifluoromethylphenoxy) acetic acid]
intraday plasma concentration ([4]; Day 15 and Day 30, daily oral 400 mg arhalofenate, FIG. 2): relatively constant
half-life ([4]; plasma, daily oral 400 mg arhalofenate for 30 days, FIGS. 1-2): long half-life
messenger RNA encoding the pro-inflammatory cytokine IL-1β (IL-1β; FIG. 4): lower the messenger RNA
secretion of the pro-inflammatory cytokine IL-1β (IL-1β; FIG. 5): lowering the secretion
